Data published in publication PMC11124413, “Synthesis, Antibacterial Effects, and Toxicity of Licochalcone C” (Pharmaceuticals, 2024).
Converted amounts (≈) assume the structure as drawn.

Assays:
S. mutans (ATCC 25175) = assay: MIC, broth microdilution with resazurin; assay type: cell-based; details: ATCC25175; Streptococcus mutans; mean of triplicates
[1] = tested on: S. sanguinis (ATCC 10556); assay: MIC, broth microdilution with resazurin; assay type: cell-based; details: ATCC10556; Streptococcus sanguinis; mean of triplicates
S. sobrinus (ATCC 33478) = assay: MIC, broth microdilution with resazurin; assay type: cell-based; details: ATCC33478; Streptococcus sobrinus; mean of triplicates
[2] = tested on: Galleria mellonella larvae; assay: Systemic toxicity in Galleria mellonella larvae; assay type: in vivo; details: 100% DMSO; after 40 h
Method: The systemic toxicity assay was performed to evaluate the acute toxic effects of LCC, following the procedures described by Megaw [63]. For the experiment, 10 healthy larvae from G. mellonella were randomly selected for each concentration test, with a weight range between 0.2 g and 0.3 g and without melanization aspects. The larvae were chilled on ice for 20 min and had their prolegs cleaned with 70% ethanol. […] Five microliters of the solution were injected into the hemocoel of each larva through the last left proleg using a 25 µL Hamilton syringe. After the administration, the larvae were incubated at 37 °C and their survival was monitored in selected intervals over 72 h. The larvae unable to move when touched and showing elevated levels of melanization were counted as dead. Experiments were performed in triplicate.

Gram-negative strains = tested on: Gram-negative strains; parameters: method as in PMID 20160051; details: without efflux pump inhibitor (EPI); cited from earlier work
M. avium (ATCC 25291) = assay: Antimycobacterial MIC, resazurin microtiter assay; assay type: cell-based; details: ATCC25291; Mycobacterium avium; mean of triplicates
M. kansasii (ATCC 12478) = assay: Antimycobacterial MIC, resazurin microtiter assay; assay type: cell-based; details: ATCC12478; Mycobacterium kansasii; mean of triplicates
[3] = tested on: M. tuberculosis (ATCC 27294); assay: Antimycobacterial MIC, resazurin microtiter assay; assay type: cell-based; details: ATCC27294; Mycobacterium tuberculosis; mean of triplicates

[H]/N=C(\N/C(=N/[H])NCCCCCCNC(=N)NC(=N)Nc1ccc(Cl)cc1)Nc1ccc(Cl)cc1 [Chlorhexidine, chlorhexidine, reference compound]
MIC (S. mutans (ATCC 25175)): 0.4 µg/mL (≈ 0.791 µM)
MIC [1]: 1.8 µg/mL (≈ 3.56 µM)
MIC (S. sobrinus (ATCC 33478)): 3.6 µg/mL (≈ 7.12 µM)

C[S+](C)[O-] [DMSO, dimethyl sulfoxide, reference compound]
lethality to larvae [2]: total lethality

CC(C)=CCc1c(O)ccc(C(=O)/C=C/c2ccc(O)cc2)c1O [IBC, isobavachalcone]
antibacterial activity (Gram-negative strains): weakly active

NNC(=O)c1ccncc1 [Isoniazid, reference compound]
MIC (M. avium (ATCC 25291)): > 1 µg/mL
MIC (M. kansasii (ATCC 12478)): 1 µg/mL (≈ 7.29 µM)
MIC [3]: 0.5 µg/mL (≈ 3.65 µM)
